Structures can show the parent of a compound that is named as a salt.
Test system: SNU-16
Assay: MTS assay, SNU-16
Type: cell-based
Conditions: Homo sapiens, SNU-16, SNU-16; read-out: MTS cell kill data (IC50-μM) SNU-16
Procedure: Cells were maintained at 37° C., 5% CO2 in DMEM media supplemented with 1% fetal bovine serum, penicillin/streptomycin and fungizone (Invitrogen). Cells were seeded into 96-well tissue culture plates at 3000 per well and cultured at 37° C. for 18 hours. Test compounds were dissolved and diluted to 300× in DMSO then diluted 1:40 in DMEM.

| SMILES | IC50 [µM] |
| --- | --- |
| CN(CCc1ccc(Nc2ncc3c(n2)-c2ccccc2[C@H](c2ccc(F)c(F)c2)C3)cc1)C1CCCCC1 [Example 85, (S)-N-(4-(2-(cyclohexyl(methyl)amino)ethyl)phenyl)-6-(3,4-difluorophenyl)-5,6-dihydrobenzo[h]quinazolin-2-amine hydrochloride] | 3.88 |
| CN(CCc1ccc(Nc2ncc3c(n2)-c2ccccc2[C@H](c2ccc(Cl)c(Cl)c2)C3)cc1)C1CCCCC1 [Example 106, (S)-N-(4-(2-(cyclohexyl(methyl)amino)ethyl)phenyl)-6-(3,4-dichlorophenyl)-5,6-dihydrobenzo[h]quinazolin-2-amine hydrochloride salt] | 3.05 |
| Clc1ccc([C@@H]2Cc3cnc(Nc4cccc(CCN5CCCCC5)c4)nc3-c3ccccc32)cc1Cl [Example 167, (S)-6-(3,4-dichlorophenyl)-N-(3-(2-(piperidin-1-yl)ethyl)phenyl)-5,6-dihydrobenzo[h]quinazolin-2-amine hydrochloride] | 4.21 |
| CN1CCN(CCc2ccc(Nc3ncc4c(n3)-c3ccccc3[C@H](c3ccc(F)c(F)c3)C4)cc2)CC1 [Example 88, (S)-6-(3,4-difluorophenyl)-N-(4-(2-(4-methylpiperazin-1-yl)ethyl)phenyl)-5,6-dihydrobenzo[h]quinazolin-2-amine hydrochloride] | 9.86 |
| CN(C)CCc1ccc(Nc2ncc3c(n2)-c2ccccc2[C@H](c2ccc(F)c(F)c2)C3)cc1 [Example 87, (S)-6-(3,4-difluorophenyl)-N-(4-(2-(dimethylamino)ethyl)phenyl)-5,6-dihydrobenzo[h]quinazolin-2-amine hydrochloride] | 7.78 |
| COCCN1CCN(CCc2ccc(Nc3ncc4c(n3)-c3ccccc3[C@@H](c3ccc(F)c(F)c3)C4)cc2)CC1 [Example 90, (R)-6-(3,4-difluorophenyl)-N-(4-(2-(4-(2-methoxyethyl)piperazin-1-yl)ethyl)phenyl)-5,6-dihydrobenzo[h]quinazolin-2-amine hydrochloride] | 14.6 |
| Fc1ccc([C@H]2Cc3cnc(Nc4ccc(CCN5CCCCC5)cc4)nc3-c3ccccc32)cc1F [Example 91, (R)-6-(3,4-difluorophenyl)-N-(4-(2-(piperidin-1-yl)ethyl)phenyl)-5,6-dihydrobenzo[h]quinazolin-2-amine hydrochloride] | 6.32 |

Test system: not given
Assay: not given
Conditions: not given

| SMILES | melting point [°C] |
| --- | --- |
| CCN(CCc1ccc(Nc2ncc3c(n2)-c2ccccc2C(c2cccc(Br)c2)C3)cc1)Cc1ccncc1 (centres unmarked) [Example 41, 6-(3-bromophenyl)-N-(4-(2-(ethyl(pyridin-4-ylmethyl)amino)ethyl)phenyl)-5,6-dihydrobenzo[h]quinazolin-2-amine] | 88 to 90 |
| CN(C)CCCNc1ncc2c(n1)-c1ccccc1[C@H](c1ccc(Cl)c(Cl)c1)C2 [Example 13, (S)—N^1-(6-(3,4-dichlorophenyl)-5,6-dihydrobenzo[h]quinazolin-2-yl)-N^3,N^3-dimethylpropane-1,3-diamine] | 59 to 62 |
| CCCCN(C)CCc1ccc(Nc2ncc3c(n2)-c2ccccc2[C@@H](c2ccc(Br)cc2)C3)cc1 (as salt: hydrochloride) [Example 107, (R)-6-(4-bromophenyl)-N-(4-(2-(butyl(methyl)amino)ethyl)phenyl)-5,6-dihydrobenzo[h]quinazolin-2-amine hydrochloride salt] | 140 to 145 |
| CN(CCc1ccc(Nc2ncc3c(n2)-c2ccccc2C(c2ccc(F)c(F)c2)C3)cc1)C1CCCCC1 (centres unmarked) (as salt: hydrochloride) [Example 60, N-(4-(2-(cyclohexyl(methyl)amino)ethyl)phenyl)-6-(3,4-difluorophenyl)-5,6-dihydrobenzo[h]quinazolin-2-amine] | 107 to 114 |
| COCCN1CCN(CCc2ccc(Nc3ncc4c(n3)-c3ccccc3C(c3ccc(Cl)cc3Cl)C4)cc2)CC1 (centres unmarked) (as salt: hydrochloride) | 208 to 212 |
| OCCc1ccc(Nc2ncc3c(n2)-c2ccccc2C(c2ccc(Cl)cc2)C3)cc1 (centres unmarked) [Example 22, 2-(4-(6-(4-chlorophenyl)-5,6-dihydrobenzo[h]quinazolin-2-ylamino)phenyl)ethanol] | 163 to 164 |
| CC(C)(C)OC(=O)N1CCC(Nc2ncc3c(n2)-c2ccccc2C(c2ccc(Cl)c(Cl)c2)C3)CC1 (centres unmarked) [Example 19, tert-butyl 4-(6-(3,4-dichlorophenyl)-5,6-dihydrobenzo[h]quinazolin-2-ylamino)piperidine-1-carboxylate] | 94 to 96 |
| CCCCN(C)CCc1ccc(Nc2ncc3c(n2)-c2ccccc2C(c2ccc(Cl)cc2)C3)cc1 (centres unmarked) (as salt: hydrochloride) | 145 to 150 |
| Clc1ccc([C@@H]2Cc3cnc(Nc4ccc(CCN5CCCCC5)cc4)nc3-c3ccccc32)cc1 (as salt: hydrochloride) | 261 to 263 |
| Fc1ccc([C@H]2Cc3cnc(Nc4ccc(CCN5CCCCC5)cc4)nc3-c3ccccc32)cc1F (as salt: hydrochloride) [Example 91, (R)-6-(3,4-difluorophenyl)-N-(4-(2-(piperidin-1-yl)ethyl)phenyl)-5,6-dihydrobenzo[h]quinazolin-2-amine hydrochloride] | 165 to 167 |
| CC(C)c1ccc2c(c1)C(c1ccc(Cl)c(Cl)c1)Cc1cnc(N)nc1-2 (centres unmarked) [Example 20, 6-(3,4-dichlorophenyl)-8-isopropyl-5,6-dihydrobenzo[h]quinazolin-2-amine] | 174 to 176 |
| CN(C)CCCNc1ncc2c(n1)-c1ccccc1C(c1cccc(Br)c1)C2 (centres unmarked) [Example 5, N^1-(6-(3-bromophenyl)-5,6-dihydrobenzo[h]quinazolin-2-yl)-N^3,N^3-dimethylpropane-1,3-diamine] | 120 to 122 |
| CCCCN(C)CCc1cc(Nc2ncc3c(n2)-c2ccccc2[C@H](c2ccccc2F)C3)ccc1F (as salt: hydrochloride) [Example 172, (R)—N-(3-(2-(butyl(methyl)amino)ethyl)-4-fluorophenyl)-6-(2-fluorophenyl)-5,6-dihydrobenzo[h]quinazolin-2-amine hydrochloride salt] | 125 to 130 |
| Nc1ncc2c(n1)-c1ccccc1[C@@H](c1ccc(Cl)c(Cl)c1)C2 | 159 to 160 |
| Clc1ccccc1[C@H]1Cc2cnc(Nc3ccc(CCN4CCCCC4)cc3)nc2-c2ccccc21 (as salt: hydrochloride) | 164 to 167 |
| CN(C)CCCCNc1ncc2c(n1)-c1ccccc1C(c1cccc(Br)c1)C2 (centres unmarked) [Example 6, N^1-(6-(3-bromophenyl)-5,6-dihydrobenzo[h]quinazolin-2-yl)-N^4,N^4-dimethylbutane-1,4-diamine] | 115 to 117 |
| Nc1ncc2c(n1)-c1ccccc1[C@H](c1ccc(Cl)c(Cl)c1)C2 | 159 to 160 |

More lines, now with the values ahead:

| melting point [°C] | SMILES |
| --- | --- |
| 205 to 210 | Brc1ccc([C@@H]2Cc3cnc(Nc4ccc(CCN5CCCCC5)cc4)nc3-c3ccccc32)cc1 (as salt: hydrochloride) [Example 103, (S)-6-(4-bromophenyl)-N-(4-(2-(piperidin-1-yl)ethyl)phenyl)-5,6-dihydrobenzo[h]quinazolin-2-amine hydrochloride salt] |
| 75 to 77 | CN(C)CCNCCc1ccc(Nc2ncc3c(n2)-c2ccccc2C(c2cccc(Br)c2)C3)cc1 (centres unmarked) [Example 44, N^1-(4-(6-(3-bromophenyl)-5,6-dihydrobenzo[h]quinazolin-2-ylamino)phenethyl)-N^2,N^2-dimethylethane-1,2-diamine] |
| 96 to 98 | CN(CCc1ccc(Nc2ncc3c(n2)-c2ccccc2[C@H](c2ccc(F)c(F)c2)C3)cc1)C1CCCCC1 (as salt: hydrochloride) [Example 85, (S)—N-(4-(2-(cyclohexyl(methyl)amino)ethyl)phenyl)-6-(3,4-difluorophenyl)-5,6-dihydrobenzo[h]quinazolin-2-amine hydrochloride] |
| 67 to 69 | CCN(CCc1ccc(Nc2ncc3c(n2)-c2ccccc2C(c2cccc(Br)c2)C3)cc1)C(C)C (centres unmarked) [Example 40, 6-(3-bromophenyl)-N-(4-(2-(ethyl(isopropyl)amino)ethyl)phenyl)-5,6-dihydrobenzo[h]quinazolin-2-amine] |
| 121 to 122 | COCCN1CCN(CCc2ccc(Nc3ncc4c(n3)-c3ccccc3C(c3ccc(Cl)c(Cl)c3)C4)cc2)CC1 (centres unmarked) [Example 33, 6-(3,4-dichlorophenyl)-N-(4-(2-(4-(2-methoxyethyl)piperazin-1-yl)ethyl)phenyl)-5,6-dihydrobenzo[h]quinazolin-2-amine] |
| 220 to 225 | COCCN1CCN(CCc2cccc(Nc3ncc4c(n3)-c3ccccc3[C@H](c3ccc(Cl)c(Cl)c3)C4)c2)CC1 (as salt: hydrochloride) |
| 236 to 238 | CN1CCN(CCc2ccc(Nc3ncc4c(n3)-c3ccccc3[C@H](c3ccc(Cl)c(Cl)c3)C4)cc2)CC1 (as salt: hydrochloride) [Example 114, (S)-6-(3,4-dichlorophenyl)-N-(4-(2-(4-methylpiperazin-1-yl)ethyl)phenyl)-5,6-dihydrobenzo[h]quinazolin-2-amine hydrochloride] |
| 186 to 187 | Nc1ncc2c(n1)-c1ccc(-c3ccccc3)cc1C(c1ccc(Cl)c(Cl)c1)C2 (centres unmarked) [Example 21, 6-(3,4-dichlorophenyl)-8-phenyl-5,6-dihydrobenzo[h]quinazolin-2-amine] |
| 193 to 199 | Fc1ccccc1[C@@H]1Cc2cnc(Nc3cccc(CCN4CCNCC4)c3)nc2-c2ccccc21 (as salt: hydrochloride) [Example 160, (R)-6-(2-fluorophenyl)-N-(3-(2-(piperazin-1-yl)ethyl)phenyl)-5,6-dihydrobenzo[h]quinazolin-2-amine hydrochloride] |
| 214 to 218 | Fc1ccc(C2Cc3cnc(Nc4ccc(CCN5CCCCC5)cc4)nc3-c3ccccc32)cc1F (centres unmarked) (as salt: hydrochloride) [Example 57, 6-(3,4-difluorophenyl)-N-(4-(2-(piperidin-1-yl)ethyl)phenyl)-5,6-dihydrobenzo[h]quinazolin-2-amine] |
| 164 to 166 | CCCCN(C)CCc1ccc(Nc2ncc3c(n2)-c2ccccc2[C@H](c2ccc(F)cc2)C3)cc1 [Example 99, (S)—N-(4-(2-(butyl(methyl)amino)ethyl)phenyl)-6-(4-fluorophenyl)-5,6-dihydrobenzo[h]quinazolin-2-amine] |

Reference: patent publication US8357694B2, “Substituted 5,6-dihydro-6-phenylbenzo[F]isoquinolin-2-amine compounds” (ArQule, Inc., priority 2008, dated 2013)
